Test results from patent US20110003314A1, “Hapten, Immunogens and Derivatives of Ascomycin Useful for Preparation of Antibodies and Immunoassays” (MICROGENICS CORPORATION, priority 2004, published 2011).

Legend:
[1] = system: monoclonal antibody produced by hybridoma line 28E2; experiment: CEDIA tacrolimus assay specificity (cross-reactivity); format: binding, mice; details: for Concentration Measured: added to whole blood, concentration tested 20 ng/ml
Description: Antibodies obtained using any of the aforementioned techniques are screened or purified not only for their ability to bind specifically with tacrolimus, but also for low cross-reactivity with potential interfering substances. “Cross reactivity” is determined in a quantitative immunoassay by establishing a standard curve using known dilutions of tacrolimus or ascomycin. […] The percent (%) cross-reactivity is the measured concentration divided by the tested concentration multiplied by 100.
If tacrolimus is present in the sample, it binds to the antibody, leaving the ED portion of the competing conjugate free to restore enzyme activity upon complementation reaction with enzyme acceptor (EA) fragments in the assay reaction mixture. The active enzyme is then capable of producing a quantifiable reaction product when exposed to appropriate substrate. If drug is not present in the sample, the antibody binds to the ED-drug conjugate inhibiting association of the ED fragments with the EA fragments, thus inhibiting restoration of enzyme activity. The amount of reaction product and resultant absorbance change are proportional to the amount of drug in the sample.
Each of four naturally occurring metabolites of tacrolimus, at a concentration of approximately 20 ng/ml, was added separately to a whole blood specimen. […] The cross reactivity of the metabolites was calculated as:
(measured concentration)/20ng/ml×100%
In another experiment, commonly co-administered immunosuppressants were added to whole blood and tested for cross-reactivity.

[2] = system: antibodies that bind rapamycin; details: taught by Sedrani et al.; cited from earlier work
[3] = tacrolimus metabolites, 20 ng/ml in whole blood, (measured concentration)/20 ng/ml x 100%
[4] = other immunosuppressants in whole blood, tested concentration 100,000 ng/ml

Compound | Concentration Measured [1] [ng/mL] | % Cross-Reactivity [1, 3] [%] | % Cross-Reactivity [1, 4] [%] | cross-reactivity of rapamycin-binding antibodies [2]
C=CCC1C=C(C)CC(C)CC(OC)C2OC(O)(C(=O)C(=O)N3CCCCC3C(=O)OC(C(C)=CC3CCC(O)C(O)C3)C(C)C(O)CC1=O)C(C)CC2O (stereo not drawn) [13,31-O-didemethyl-T, 13,31-O-didemethyl tacrolimus] | 0.57 | 2.9 | – | –
C=CCC1C=C(C)CC(C)CC(OC)C2OC(O)(C(=O)C(=O)N3CCCCC3C(=O)OC(C(C)=CC3CCC(O)C(OC)C3)C(C)C(O)CC1=O)C(C)CC2O (stereo not drawn) [13-O-demethyl-T, 13-O-demethyl tacrolimus] | 7.5 | 37.7 | – | –
C=CCC1C=C(C)CC(C)CC(O)C2OC(O)(C(=O)C(=O)N3CCCCC3C(=O)OC(C(C)=CC3CCC(O)C(OC)C3)C(C)C(O)CC1=O)C(C)CC2OC (stereo not drawn) [15-O-demethyl-T, 15-O-demethyl tacrolimus] | 0.95 | 4.7 | – | –
C=CCC1C=C(C)CC(C)CC(OC)C2OC(O)(C(=O)C(=O)N3CCCCC3C(=O)OC(C(C)=CC3CCC(O)C(O)C3)C(C)C(O)CC1=O)C(C)CC2OC (stereo not drawn) [31-O-demethyl-T, 31-O-demethyl tacrolimus] | 0.98 | 4.9 | – | –
C[C@]12CCC(=O)C=C1CC[C@@H]1[C@@H]2[C@@H](O)C[C@@]2(C)[C@H]1CC[C@]2(O)C(=O)CO [Hydrocorticol] | – | – | 0.0 | –
COc1c(C)c2c(c(O)c1C/C=C(\C)CCC(=O)O)C(=O)OC2 [Mycophenolic acid] | – | – | 0.0 | –
C[C@]12C=CC(=O)C=C1CC[C@@H]1[C@@H]2[C@@H](O)C[C@@]2(C)[C@H]1CC[C@]2(O)C(=O)CO [Prednisolone] | – | – | 0.0 | –
C[C@]12C=CC(=O)C=C1CC[C@@H]1[C@@H]2C(=O)C[C@@]2(C)[C@H]1CC[C@]2(O)C(=O)CO [Prednisone] | – | – | 0.0 | –
C=CC[C@@H]1/C=C(\C)C[C@H](C)C[C@H](OC)[C@H]2O[C@@](O)(C(=O)C(=O)N3CCCC[C@H]3C(=O)O[C@H](/C(C)=C/[C@@H]3CC[C@@H](O)[C@H](OC)C3)[C@H](C)[C@@H](O)CC1=O)[C@H](C)C[C@@H]2OC [tacrolimus] | 20.0 | 100.0 | – | greater than 50%
